{"source": "paper PMC7261837", "about": "“Circumdatin D Exerts Neuroprotective Effects by Attenuating LPS-Induced Pro-Inflammatory Responses and Downregulating Acetylcholinesterase Activity In Vitro and In Vivo” (Frontiers in Pharmacology, 2020)", "key": {"[1]": {"system": "NF-κB", "experiment": "NF-κB luciferase reporter assay", "assay_type": "cell-based", "conditions": "Homo sapiens; SW480 cells stably transfected with NF-κB luciferase reporter gene, induced by LPS; mean ± SD (n = 3); read-out: NF-κB Activation IC50", "description": "SW480-NF-κB cells were seeded at a density of 5 × 10^4 cells/well in 24-well plates and incubated with circumdatins with or without LPS stimulation for 6 h. The κB-dependent luciferase reporter activity in cell extracts was monitored using an automated microplate reader."}, "[2]": {"target": "T1, acetylcholinesterase (AChE) from Electrophorus electrics (Electric eel) (Electrophorus electricus, UniProt O42275)", "T1 construct": "purchased Sigma Chemical Co. (St Louis, MO, USA)", "T1 sequence (O42275 24-633)": "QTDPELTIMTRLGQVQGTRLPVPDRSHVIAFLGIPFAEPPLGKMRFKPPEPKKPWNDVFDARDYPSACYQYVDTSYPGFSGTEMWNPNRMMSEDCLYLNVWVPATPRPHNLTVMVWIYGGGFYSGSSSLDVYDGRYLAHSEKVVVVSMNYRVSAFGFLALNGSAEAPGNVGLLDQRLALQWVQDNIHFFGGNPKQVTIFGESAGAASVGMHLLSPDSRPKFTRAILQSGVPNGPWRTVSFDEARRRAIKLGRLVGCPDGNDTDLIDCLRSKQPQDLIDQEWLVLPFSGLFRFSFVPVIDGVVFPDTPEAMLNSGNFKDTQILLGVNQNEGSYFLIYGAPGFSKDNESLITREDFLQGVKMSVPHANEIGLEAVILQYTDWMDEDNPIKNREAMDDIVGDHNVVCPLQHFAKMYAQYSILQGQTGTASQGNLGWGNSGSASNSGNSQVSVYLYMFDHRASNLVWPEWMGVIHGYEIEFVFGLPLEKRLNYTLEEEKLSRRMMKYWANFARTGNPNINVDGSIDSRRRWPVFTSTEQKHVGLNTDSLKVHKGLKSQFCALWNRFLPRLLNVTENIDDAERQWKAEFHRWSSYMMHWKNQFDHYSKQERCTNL", "experiment": "biochemical", "conditions": "modified Ellman's colorimetric method; mean ± SD (n = 3)", "source_text": "Dulbecco's modified Eagle medium (DMEM), α-minimum essential medium (α-MEM) and fetal bovine serum (FBS) were provided by Hyclone (Waltham, USA). 3-(4,5-Dimethylthiazol-2-yl)-2,5-diphenyltetrazolium bromide (MTT), acetylcholinesterase (AChE) from Electrophorus electrics (Electric eel) and lipopolysaccharide (LPS) (Escherichia coli 055: B5) were provided by Sigma Chemical Co. (St Louis, MO, USA). Enzyme-linked immunosorbent assay (ELISA) kits for IL-1β and TNF-α and Griess reagent for nitric oxide (NO) assay kit were provided by ExCell Bio (Shanghai, China). Antibodies for TLR4, MyD88, JNK, p-JNK, p38, p-p38, ERK, p-ERK, IκB, p-IκB, IKK, p-IKK, NF-κB, STAT3、p-STAT3、Jak2, p-Jak2, GAPDH and Histone H3 were purchased from Cell Signaling Technology (Danvers, USA). Antibodies for iNOS and COX-2 were provided by Abcam (Cambridge, UK).\n(§1) AChE activities in vitro and in vivo were assessed by a modified Ellman's spectrophotometric method ([Szwajgier, 2015]). Briefly, AChE (80 μl) in phosphate buffer (Na2HPO4/NaH2PO4, pH 8.0) and compound (20 μl) diluted in same phosphate buffer were added to 96 microplates as the reaction mixture. The mixture was incubated at 37°C for 30 min before addition of 10 μl 5,5′-dithiobis (2-nitrobenzoic acid) (DTNB) (3 mM) and 10 μl acetylthiocholine iodide (ATCI) (15 mM). After incubation for 20 min, the absorbance was detected at 412 nm using a microplate spectrophotometer (Thermo Scientifics, USA). […] The inhibitory rate of AChE was calculated, and the IC50 values were calculated by GraphPad Prism® 5.0 software (GraphPad Inc., San Diego, USA)."}, "[3]": {"system": "primary microglia cells", "experiment": "MTT assay in primary microglia", "assay_type": "cell-based, Sprague Dawley rats", "conditions": "untreated and LPS-stimulated cells, 1–100 μM, 48 h", "description": "(§2) Primary microglia were prepared from the cortical tissue of neonatal (1–3 d) Sprague Dawley rats as [Ni and Aschner (2010)] described and primary cortical neurons were isolated from embryos of pregnant Sprague Dawley rats of E-18 ([Zeng et al., 2012]). All experimental manipulations with the animals was reviewed and approved by the animal experimental ethics committee of Peking University. The animals used in the work were performed in accordance with the Animal Care and Use Guidelines of Peking University.\n(§3) In vitro cytotoxicity was detected using the MTT assay. Cells were treated with different concentrations of circumdatins in the presence or absence of LPS for 48 h. Then, MTT reagent was added to each well and the plates were further incubated at 37°C for 4 h. The absorbance was read at 570 nm using a microplate spectrophotometer (Thermo Scientifics, USA).\nCell surviability was detected using the MTT assay. Cells were seeded in 96-well plates and incubated overnight, following which the cells were treated with different concentrations of circumdatins with or without 1µg/mL of LPS for indicated time. Then, the cells were subsequently cultured with MTT and incubated for 4 hours at 37°C. Thereafter, the purple formazan dye was dissolved in DMSO and the absorbance was measured at 570 nm."}, "[4]": {"system": "primary cortical neurons", "experiment": "MTT assay in primary neuron-enriched cells", "assay_type": "cell-based, Sprague Dawley rats", "conditions": "48 h, 1–100 μM", "description": "as §2, §3"}, "[5]": {"system": "primary cortical neurons co-cultured with LPS-activated primary microglia", "experiment": "Microglia-neuron co-culture neuroprotection (MTT, TUNEL, crystal violet)", "assay_type": "cell-based, Sprague Dawley rats", "description": "For co-culture experiments, primary microglia cells were seeded on the upper insert of Transwell chambers (pore size 3 μm; Corning Costar, USA) in 24-well plates, and neurons were grown in the lower plate wells. Circumdatin D was added to primary microglia cells 1 h before LPS stimulation. After 48 h of coculture, the neurons in the bottom of 24-well plate were collected for the following experiments.\n[…] Then, the cells were stained with 1% crystal violet solution for 15 min. Images were captured with an optical microscope. Five different fields were selected for each group for observing cellular morphology.\n[…] TUNEL staining was performed to detect apoptosis using in situ cell death detection Kit (Roche Diagnostics, Mannheim, Germany). Hochest 33342 staining was used to detect total cell nuclei. Images were taken and analyzed on a confocal microscopy (Leica, Germany). Six fields from each sample were randomly selected and analyzed."}, "[6]": {"target": "T2, AChE in primary cortical neurons (Rattus norvegicus, UniProt P37136)", "T2 construct": "primary cortical neurons were isolated from embryos of pregnant Sprague Dawley rats of E-18; endogenous in cells; host or cells: primary cortical neurons from E-18 Sprague Dawley rat embryos", "T2 sequence (P37136 32-614)": "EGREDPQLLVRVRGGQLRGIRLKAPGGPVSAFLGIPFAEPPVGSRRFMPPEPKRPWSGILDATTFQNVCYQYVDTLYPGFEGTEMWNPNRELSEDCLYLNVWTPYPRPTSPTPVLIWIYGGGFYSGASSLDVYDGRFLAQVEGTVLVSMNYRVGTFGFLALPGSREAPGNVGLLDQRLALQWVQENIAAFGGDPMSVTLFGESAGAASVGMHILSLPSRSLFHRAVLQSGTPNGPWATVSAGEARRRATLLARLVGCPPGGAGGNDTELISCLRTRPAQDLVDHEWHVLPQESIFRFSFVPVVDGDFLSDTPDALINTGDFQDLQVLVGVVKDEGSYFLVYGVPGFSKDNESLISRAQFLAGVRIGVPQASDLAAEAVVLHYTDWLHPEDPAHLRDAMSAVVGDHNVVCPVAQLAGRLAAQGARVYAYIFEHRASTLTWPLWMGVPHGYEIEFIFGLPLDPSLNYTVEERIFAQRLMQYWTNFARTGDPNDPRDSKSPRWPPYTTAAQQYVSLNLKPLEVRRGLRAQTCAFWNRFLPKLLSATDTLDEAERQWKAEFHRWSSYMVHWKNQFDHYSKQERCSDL", "experiment": "AChE activity in LPS-treated primary neurons (modified Ellman)", "assay_type": "cell-based", "conditions": "1 μg/ml LPS, 1–100 μM, 48 h", "description": "as §1"}, "[7]": {"system": "C. elegans CL4176", "experiment": "Nematode toxicity assay", "assay_type": "in vivo, Caenorhabditis elegans", "conditions": "24 and 48 h, tested dose, Figure S19", "description": "To eliminate the confounding factor of toxicity in the procedure, CL4176 worms were exposed to increasing concentrations of circumdatin D dissolved in NGM (0, 100, 200, 500 µM) for 24 h and 48h at 16 °C, respectively. Further, nematodes were exposed to 0.4% DMSO as the negative control. The animals were scored as live or death using a Motic dissecting microscope (Motic Inc., LTD., Hong Kong, China). The worms were considered as death if there was no response when gently touched with a platinum wire. Each independent assay included three NGM plates with thirty worms in each one. Toxicity was expressed as a total percentage of worm survival."}, "[8]": {"system": "AChE in C. elegans CL4176", "experiment": "AChE activity of C. elegans CL4176", "assay_type": "in vivo, Caenorhabditis elegans", "conditions": "CL4176 nematodes", "description": "AChE activity of C. elegans was determined by the method as described ([Xin et al., 2013]). Briefly, approximately 1,000 nematodes with or without circumdatin D treatment were collected and then triturated mechanically in PBS (50 mM, pH 7.4) on ice. The lysate supernatant was collected by centrifugation and AChE activity in the supernatant was determined using modified Ellman method. The protein concentration was determined by BCA protein assay. AChE activity was expressed as U/mg proteins."}}}
{"compound": "COc1ccc2c(c1)C(=O)N1CCC[C@H]1c1nc3ccc(OC)cc3c(=O)n1-2", "note": "[circumdatin D]", "values": [{"measurement": "IC50", "setting": "[1]", "value": "8.7 ± 1.3", "unit": "µM"}, {"measurement": "IC50", "setting": "[2]", "value": "2.4 ± 0.5", "unit": "µM"}, {"measurement": "toxicity in primary microglial cultures (MTT)", "setting": "[3]", "value": "low toxicity"}, {"measurement": "direct toxicity to neurons (MTT)", "setting": "[4]", "value": "no direct toxic to neurons"}, {"measurement": "neuron death in co-cultures (MTT)", "setting": "[5]; microglia treated prior to LPS stimulation (1 μg/ml), 48 h", "value": "reduced neuron death"}, {"measurement": "neuron apoptosis, TUNEL-positive cells", "setting": "[5]; microglial-neuronal co-culture, 1 μg/ml LPS", "value": "significantly reduced the numbers of TUNEL-positive cells"}, {"measurement": "neuronal morphology (crystal violet staining)", "setting": "[5]; microglial-neuronal co-culture, 1 μg/ml LPS, 48 h", "value": "markedly reversed the neuronal injury"}, {"measurement": "LPS-induced AChE activity in primary neuronal cells", "setting": "[6]", "value": "markedly reduced the LPS-induced AChE activities"}, {"measurement": "toxicity on CL4176 nematodes (survival)", "setting": "[7]", "value": "no toxicity on the normal survival of the nematode"}, {"measurement": "AChE activity elevated upon temperature upshift", "setting": "[8]", "value": "significantly attenuated these changes in a dose-dependent manner"}]}
